Converted amounts (≈) assume the structure as drawn.
Tests used:
[1] = Solubility of amphotericin B in 23 wt % triblock copolymer solution; format: physicochemical
Procedure: Triblock copolymer of Example 2 (entry number 1) was used. The drug was mixed with the copolymer solution (23 wt % copolymer in water). The mixture was allowed to stand for 30 minutes before filtration.

[2] = Behaviour of the polymer solution in aqueous liquid at 35-42° C.; format: physicochemical; settings: copolymer with drug; between at least 35-42° C.
Procedure: PEG (Mw=1450; 476.2 g) was dried under vacuum (1 mmHg) at 130° C. for 5 hours. D,L-Lactide (412.9 grams) and glycolide (110.9 grams) were added to the flask and heated to 145° C. to afford a homogenous solution. Polymerization was initiated by the addition of 250 mg stannous octoate to the reaction mixture. After maintaining the reaction for five hours at 145° C., the reaction was stopped and the flask was cooled to room temperature. Unreacted lactide and glycolide were removed by vacuum distillation. […] The copolymer was purified twice by dissolving in water to afford a 25% solution, and letting the solution stir overnight at room temperature followed by elevating the solution temperature to 70° C. to precipitate the polymer. Excess water was removed by freeze drying. […] The GPC was performed on two Phenogel columns (300×7.8), 500 Å, and a mixed bed, connected in series. Mobile phase was tetrahydrofuran. Calibration was with PEG standards. Detection was by refractive index.

[3] = cited from earlier work
physchem [4] = test: physchem
Procedure: Polymer solutions containing 23% by weight of the copolymer were prepared in water, and paclitaxel was added to the solution and the mixture was stirred for approximately 20 minutes.

physchem [5] = test: physchem; remark: listed apart in the source
Procedure: Triblock copolymers of Example 2 were used. The neat polymer and the drug were mixed and gently heated (ca. 50° C.) to completely dissolve the drug. Water was added to the mixture to afford a 23% by weight aqueous solution of the triblock copolymers. The solution was allowed to stand for 30 minutes before filtration (0.2 μm pore size filter).

state of polymer solution containing drug when mixed with an aqueous liquid [2]	increase of solubility (physchem [4])	solubility (physchem [4]; aqueous with cosolvent or surfactant or cyclodextrin, thermodynamic from solid) [µg/mL]	solubility (physchem [4]; water) [µg/mL]	solubility at 30 min (physchem [5]; 25 °C, aqueous with cosolvent or surfactant or cyclodextrin, Drug Solubility) [µg/mL]	Drug Solubility (physchem [5]; 30 min) [µg/mL]	solubility (physchem [5]; water, water solubility) [µg/mL]	Structure (SMILES)	solubility in the aqueous triblock copolymer solution ([1]; 23 wt % copolymer of Example 2 entry number 1 in water, 30 minutes, filtered) [µg/mL]	increase of solubility ([1]; copolymer solution versus pure water) [fold]	reported solubility in pure water [3] [µg/mL]
remained as a free flowing liquid	at least 5000 fold	> 25000	~5 (≈ 5.86 µM)	–	–	–	CC(=O)O[C@H]1C(=O)[C@@]2(C)[C@H]([C@H](OC(=O)c3ccccc3)[C@]3(O)C[C@H](OC(=O)[C@H](O)[C@@H](NC(=O)c4ccccc4)c4ccccc4)C(C)=C1C3(C)C)[C@]1(OC(C)=O)CO[C@@H]1C[C@@H]2O [paclitaxel]	–	–	–
remained as free flowing liquids	–	–	–	1500 (≈ 4250 µM)	1570	10 (≈ 28.3 µM)	COC1=CC(=O)C[C@@H](C)[C@]12Oc1c(Cl)c(OC)cc(OC)c1C2=O [griseofulvin]	–	–	–

Structure (SMILES)	state of polymer solution containing drug when mixed with an aqueous liquid [2]	increase of solubility (physchem [4])	solubility (physchem [4]; aqueous with cosolvent or surfactant or cyclodextrin, thermodynamic from solid) [µg/mL]	solubility (physchem [4]; water) [µg/mL]	solubility at 30 min (physchem [5]; 25 °C, aqueous with cosolvent or surfactant or cyclodextrin, Drug Solubility) [µg/mL]	Drug Solubility (physchem [5]; 30 min) [µg/mL]	solubility (physchem [5]; water, water solubility) [µg/mL]	solubility in the aqueous triblock copolymer solution ([1]; 23 wt % copolymer of Example 2 entry number 1 in water, 30 minutes, filtered) [µg/mL]	increase of solubility ([1]; copolymer solution versus pure water) [fold]	reported solubility in pure water [3] [µg/mL]
C[C@@H]1[C@H](O)[C@@H](C)/C=C/C=C/C=C/C=C/C=C/C=C/C=C/[C@H](O[C@@H]2O[C@H](C)[C@@H](O)[C@H](N)[C@@H]2O)C[C@@H]2O[C@](O)(C[C@@H](O)C[C@@H](O)[C@H](O)CC[C@@H](O)C[C@@H](O)CC(=O)O[C@H]1C)C[C@H](O)[C@H]2C(=O)O [amphotericin B]	remained as a free flowing liquid	–	–	–	–	–	–	150 (≈ 162 µM)	50	3

— US20020192286A1, “Biodegradable triblock copolymers as solubilizing agents for drugs and method of use thereof” (Macromed, Incorporated, priority 2001, published 2002)
